Laboratory results from patent US20020137929A1, “1 - (3-heterocyclylphenyl) isothiourea, -isourea, -guanidine and -amidine herbicidal agents” (Intellectual Property Department, BASF Aktiengesellschaft, priority 1998, published 2002).

How the values were obtained:
[1] = test system: IPOHE (Morningglory, Ivyleaf); assay: Postemergence herbicidal evaluation; type: in vivo, Ipomoea hederacea; details: postemergence
Method in brief: (§1)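 Compound is applied as a foliar spray to seedlings about two weeks old, formulated in equal parts acetone and water with 0.5% TWEEN 20 and delivered at 40 psi to give about 0.0156–0.500 kg per hectare. Injury is rated visually 0–9 after four to five weeks.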

MOOVA (Monochoria) = assay: Preemergence weed control under flooded paddy conditions; type: in vivo, Monochoria vaginalis; details: rated 3-4 weeks after treatment
Method in brief: (§2)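 Using flooded silt loam (water 1.5 to 3 cm deep), seeds sown in the top 0.5 cm were exposed preemergence to compound pipetted into the flood at about 0.0313 to 0.500 kg/ha. Effects were scored 0-9 by eye three to four weeks later.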

[2] = test system: SAGPY (Arrowhead (Pygmaea)); assay: as above; type: in vivo, Sagittaria pygmaea; details: rated 3-4 weeks after treatment
Method in brief: as §2

ZEAMX (Corn, Field) = assay: Preemergence herbicidal evaluation; type: in vivo, Zea mays; details: rated 4-5 weeks after treatment
Method in brief: (§3)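 Scores (0–9) reflect visual comparison with control plants for stand, vigor, malformation, size and chlorosis. Compound was applied to the soil after sowing, before emergence, as an aqueous acetone spray (about 0.0156–0.500 kg/ha), and cups were kept in a greenhouse for 4–5 weeks.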

[3] = test system: IPOHE (Morningglory, Ivyleaf); assay: Preemergence herbicidal evaluation; type: in vivo, Ipomoea hederacea; details: rated 4-5 weeks after treatment
Method in brief: as §3

[4] = test system: GLXMAW (Soybean, Williams); assay: Preemergence herbicidal evaluation; type: in vivo, Glycine max, (L.) Merr. cv Williams; details: rated 4-5 weeks after treatment
Method in brief: as §3

GALAP (Galium) = assay: Postemergence herbicidal evaluation; type: in vivo, Galium aparine; details: postemergence
Method in brief: as §1

CYPIR (Rice Flatsedge) = assay: Postemergence weed control under flooded paddy conditions; type: in vivo, Cyperus iria; details: postemergence weeds, rated 3 to 4 weeks after treatment
Method in brief: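 Weeds 3 to 5 cm tall and rice seedlings at the 1.5 to 2.5 leaf stage were flooded, with water held 1.5 to 3 cm above the soil. Compounds in 50/50 v/v aqueous/acetone went into the flood water at about 0.0313 to 0.500 kg/ha. Visual 0-9 ratings versus control were made 3 to 4 weeks later.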

[5] = test system: TRZAWR (Wheat, Winter, cv Riband); assay: Preemergence herbicidal evaluation; type: in vivo, Triticum aestivum; details: rated 4-5 weeks after treatment
Method in brief: as §3

ECHCG (Barnyardgrass) = assay: Preemergence herbicidal evaluation; type: in vivo, Echinochloa crus-galli; details: rated 4-5 weeks after treatment
Method in brief: as §3

AMBEL (Ragweed, Common) = assay: Postemergence herbicidal evaluation; type: in vivo, Ambrosia artemisifolia; details: postemergence
Method in brief: as §1

CASOB (Sicklepod) [6] = assay: Postemergence herbicidal evaluation; type: in vivo, Cassia obtusifolia; details: postemergence
Method in brief: as §1

ABUTH (Velvetleaf) = assay: Preemergence herbicidal evaluation; type: in vivo, Abutilon theophrasti; details: rated 4-5 weeks after treatment
Method in brief: as §3

CASOB (Sicklepod) [7] = assay: Preemergence herbicidal evaluation; type: in vivo, Cassia obtusifolia; details: rated 4-5 weeks after treatment
Method in brief: as §3

C=CCOC(=O)CC1SC(=Nc2cc(-n3c(=O)cc(C(F)(F)F)n(C)c3=O)c(F)cc2Cl)N(CC=C)C1=O (stereo not drawn) [Compound 65, Allyl 3-allyl-2-{(2-chloro-5-[3,6-dihydro-3-methyl-2,6-dioxo-4-(trifluoromethyl)-1(2H)-pyrimidinyl]-4-fluorophenyl}imino}-4-oxo-5-thiazolidineacetate]
2.0: SAGPY herbicidal effect rating ([2]; 0.0313 kg/ha) | Preemergence herbicidal rating ZEAMX (ZEAMX (Corn, Field); rate 0.1250 kg/ha) | Preemergence herbicidal rating GLXMAW ([4]; rate 0.1250 kg/ha) | GALAP herbicidal rating (GALAP (Galium); rate 0.0158 kg/ha) | Preemergence herbicidal rating ECHCG (ECHCG (Barnyardgrass); rate 0.1250 kg/ha) | CASOB herbicidal rating (CASOB (Sicklepod) [6]; rate 0.0315 kg/ha) | Preemergence herbicidal rating ABUTH (ABUTH (Velvetleaf); rate 0.0156 kg/ha) | Preemergence herbicidal rating CASOB (CASOB (Sicklepod) [7]; rate 0.2500 kg/ha)
3.0: Preemergence herbicidal rating TRZAWR ([5]; rate 0.2500 kg/ha) | CASOB herbicidal rating (CASOB (Sicklepod) [6]; rate 0.0630 kg/ha)
6.0: Herbicidal rating CYPIR (CYPIR (Rice Flatsedge); Rate 0.0313 kg/ha)
0.0: Preemergence herbicidal rating ZEAMX (ZEAMX (Corn, Field); rate 0.0156 kg/ha) | Preemergence herbicidal rating ZEAMX (ZEAMX (Corn, Field); rate 0.0313 kg/ha) | Preemergence herbicidal rating IPOHE ([3]; rate 0.0156 kg/ha) | Preemergence herbicidal rating IPOHE ([3]; rate 0.0313 kg/ha) | Preemergence herbicidal rating GLXMAW ([4]; rate 0.0313 kg/ha) | Preemergence herbicidal rating TRZAWR ([5]; rate 0.0313 kg/ha) | Preemergence herbicidal rating ECHCG (ECHCG (Barnyardgrass); rate 0.0156 kg/ha) | Preemergence herbicidal rating ECHCG (ECHCG (Barnyardgrass); rate 0.0313 kg/ha) | Preemergence herbicidal rating ECHCG (ECHCG (Barnyardgrass); rate 0.0625 kg/ha) | CASOB herbicidal rating (CASOB (Sicklepod) [6]; rate 0.0158 kg/ha) | Preemergence herbicidal rating CASOB (CASOB (Sicklepod) [7]; rate 0.0156 kg/ha) | Preemergence herbicidal rating CASOB (CASOB (Sicklepod) [7]; rate 0.0313 kg/ha)
7.0: SAGPY herbicidal effect rating ([2]; 0.2500 kg/ha) | Preemergence herbicidal rating IPOHE ([3]; rate 0.2500 kg/ha) | Herbicidal rating CYPIR (CYPIR (Rice Flatsedge); Rate 0.0625 kg/ha) | Herbicidal rating CYPIR (CYPIR (Rice Flatsedge); Rate 0.1250 kg/ha) | AMBEL herbicidal rating (AMBEL (Ragweed, Common); rate 0.0315 kg/ha)
5.0: SAGPY herbicidal effect rating ([2]; 0.1250 kg/ha) | Preemergence herbicidal rating GLXMAW ([4]; rate 0.2500 kg/ha) | GALAP herbicidal rating (GALAP (Galium); rate 0.0315 kg/ha) | Preemergence herbicidal rating ECHCG (ECHCG (Barnyardgrass); rate 0.2500 kg/ha)
1.0: Preemergence herbicidal rating ZEAMX (ZEAMX (Corn, Field); rate 0.0625 kg/ha) | Preemergence herbicidal rating IPOHE ([3]; rate 0.0625 kg/ha) | Preemergence herbicidal rating GLXMAW ([4]; rate 0.0156 kg/ha) | Preemergence herbicidal rating GLXMAW ([4]; rate 0.0625 kg/ha) | Preemergence herbicidal rating TRZAWR ([5]; rate 0.0625 kg/ha) | Preemergence herbicidal rating TRZAWR ([5]; rate 0.1250 kg/ha) | Preemergence herbicidal rating CASOB (CASOB (Sicklepod) [7]; rate 0.0625 kg/ha) | Preemergence herbicidal rating CASOB (CASOB (Sicklepod) [7]; rate 0.1250 kg/ha)
4.0: SAGPY herbicidal effect rating ([2]; 0.0625 kg/ha) | Preemergence herbicidal rating ZEAMX (ZEAMX (Corn, Field); rate 0.2500 kg/ha)
9.0: IPOHE herbicidal rating ([1]; rate 0.0158 kg/ha) | IPOHE herbicidal rating ([1]; rate 0.0315 kg/ha) | IPOHE herbicidal rating ([1]; rate 0.0630 kg/ha) | MOOVA herbicidal effect rating (MOOVA (Monochoria); 0.0313 kg/ha) | MOOVA herbicidal effect rating (MOOVA (Monochoria); 0.0625 kg/ha) | MOOVA herbicidal effect rating (MOOVA (Monochoria); 0.1250 kg/ha) | MOOVA herbicidal effect rating (MOOVA (Monochoria); 0.2500 kg/ha) | Preemergence herbicidal rating IPOHE ([3]; rate 0.1250 kg/ha) | GALAP herbicidal rating (GALAP (Galium); rate 0.0630 kg/ha) | AMBEL herbicidal rating (AMBEL (Ragweed, Common); rate 0.0158 kg/ha) | AMBEL herbicidal rating (AMBEL (Ragweed, Common); rate 0.0630 kg/ha) | Preemergence herbicidal rating ABUTH (ABUTH (Velvetleaf); rate 0.0313 kg/ha) | Preemergence herbicidal rating ABUTH (ABUTH (Velvetleaf); rate 0.0625 kg/ha) | Preemergence herbicidal rating ABUTH (ABUTH (Velvetleaf); rate 0.1250 kg/ha) | Preemergence herbicidal rating ABUTH (ABUTH (Velvetleaf); rate 0.2500 kg/ha)
8.0: Herbicidal rating CYPIR (CYPIR (Rice Flatsedge); Rate 0.2500 kg/ha)

CCOC(=O)CN1C(=O)C(CC(=O)Nc2ccccc2)SC1=Nc1cc(-n2c(=O)cc(C(F)(F)F)n(C)c2=O)c(F)cc1Cl (stereo not drawn) [Compound 68, Ethyl 2-{{2-chloro-5-[3,6-dihydro-3-methyl-2,6-dioxo-4-(trifluoromethyl)-1(2H)-pyrimidinyl]-4-fluorophenyl}imino}-4-oxo-5-[(phenylcarbamoyl)-methyl]-3-thiazolidineacetate]
8.0: Herbicidal rating CYPIR (CYPIR (Rice Flatsedge); Rate 0.2500 kg/ha)
3.0: MOOVA herbicidal effect rating (MOOVA (Monochoria); 0.0313 kg/ha) | SAGPY herbicidal effect rating ([2]; 0.2500 kg/ha) | GALAP herbicidal rating (GALAP (Galium); rate 0.0315 kg/ha)
9.0: IPOHE herbicidal rating ([1]; rate 0.0158 kg/ha) | IPOHE herbicidal rating ([1]; rate 0.0315 kg/ha) | IPOHE herbicidal rating ([1]; rate 0.0630 kg/ha) | MOOVA herbicidal effect rating (MOOVA (Monochoria); 0.0625 kg/ha) | MOOVA herbicidal effect rating (MOOVA (Monochoria); 0.1250 kg/ha) | MOOVA herbicidal effect rating (MOOVA (Monochoria); 0.2500 kg/ha) | AMBEL herbicidal rating (AMBEL (Ragweed, Common); rate 0.0158 kg/ha) | AMBEL herbicidal rating (AMBEL (Ragweed, Common); rate 0.0315 kg/ha) | AMBEL herbicidal rating (AMBEL (Ragweed, Common); rate 0.0630 kg/ha) | Preemergence herbicidal rating ABUTH (ABUTH (Velvetleaf); rate 0.2500 kg/ha)
2.0: GALAP herbicidal rating (GALAP (Galium); rate 0.0158 kg/ha)
4.0: GALAP herbicidal rating (GALAP (Galium); rate 0.0630 kg/ha) | CASOB herbicidal rating (CASOB (Sicklepod) [6]; rate 0.0315 kg/ha)
1.0: Preemergence herbicidal rating ZEAMX (ZEAMX (Corn, Field); rate 0.1250 kg/ha) | Preemergence herbicidal rating ZEAMX (ZEAMX (Corn, Field); rate 0.2500 kg/ha) | Preemergence herbicidal rating GLXMAW ([4]; rate 0.1250 kg/ha) | Preemergence herbicidal rating GLXMAW ([4]; rate 0.2500 kg/ha) | Preemergence herbicidal rating TRZAWR ([5]; rate 0.2500 kg/ha) | Preemergence herbicidal rating ECHCG (ECHCG (Barnyardgrass); rate 0.2500 kg/ha) | CASOB herbicidal rating (CASOB (Sicklepod) [6]; rate 0.0158 kg/ha) | Preemergence herbicidal rating ABUTH (ABUTH (Velvetleaf); rate 0.0313 kg/ha) | Preemergence herbicidal rating ABUTH (ABUTH (Velvetleaf); rate 0.0625 kg/ha) | Preemergence herbicidal rating CASOB (CASOB (Sicklepod) [7]; rate 0.2500 kg/ha)
0.0: SAGPY herbicidal effect rating ([2]; 0.0313 kg/ha) | SAGPY herbicidal effect rating ([2]; 0.0625 kg/ha) | SAGPY herbicidal effect rating ([2]; 0.1250 kg/ha) | Preemergence herbicidal rating ZEAMX (ZEAMX (Corn, Field); rate 0.0156 kg/ha) | Preemergence herbicidal rating ZEAMX (ZEAMX (Corn, Field); rate 0.0313 kg/ha) | Preemergence herbicidal rating ZEAMX (ZEAMX (Corn, Field); rate 0.0625 kg/ha) | Preemergence herbicidal rating IPOHE ([3]; rate 0.0156 kg/ha) | Preemergence herbicidal rating IPOHE ([3]; rate 0.0313 kg/ha) | Preemergence herbicidal rating IPOHE ([3]; rate 0.0625 kg/ha) | Preemergence herbicidal rating IPOHE ([3]; rate 0.1250 kg/ha) | Preemergence herbicidal rating GLXMAW ([4]; rate 0.0156 kg/ha) | Preemergence herbicidal rating GLXMAW ([4]; rate 0.0313 kg/ha) | Preemergence herbicidal rating GLXMAW ([4]; rate 0.0625 kg/ha) | Herbicidal rating CYPIR (CYPIR (Rice Flatsedge); Rate 0.0313 kg/ha) | Herbicidal rating CYPIR (CYPIR (Rice Flatsedge); Rate 0.0625 kg/ha) | Preemergence herbicidal rating TRZAWR ([5]; rate 0.0156 kg/ha) | Preemergence herbicidal rating TRZAWR ([5]; rate 0.0313 kg/ha) | Preemergence herbicidal rating TRZAWR ([5]; rate 0.0625 kg/ha) | Preemergence herbicidal rating TRZAWR ([5]; rate 0.1250 kg/ha) | Preemergence herbicidal rating ECHCG (ECHCG (Barnyardgrass); rate 0.0156 kg/ha) | Preemergence herbicidal rating ECHCG (ECHCG (Barnyardgrass); rate 0.0313 kg/ha) | Preemergence herbicidal rating ECHCG (ECHCG (Barnyardgrass); rate 0.0625 kg/ha) | Preemergence herbicidal rating ECHCG (ECHCG (Barnyardgrass); rate 0.1250 kg/ha) | Preemergence herbicidal rating ABUTH (ABUTH (Velvetleaf); rate 0.0156 kg/ha) | Preemergence herbicidal rating CASOB (CASOB (Sicklepod) [7]; rate 0.0156 kg/ha) | Preemergence herbicidal rating CASOB (CASOB (Sicklepod) [7]; rate 0.0313 kg/ha) | Preemergence herbicidal rating CASOB (CASOB (Sicklepod) [7]; rate 0.0625 kg/ha) | Preemergence herbicidal rating CASOB (CASOB (Sicklepod) [7]; rate 0.1250 kg/ha)
7.0: CASOB herbicidal rating (CASOB (Sicklepod) [6]; rate 0.0630 kg/ha)
5.0: Herbicidal rating CYPIR (CYPIR (Rice Flatsedge); Rate 0.1250 kg/ha) | Preemergence herbicidal rating ABUTH (ABUTH (Velvetleaf); rate 0.1250 kg/ha)
6.0: Preemergence herbicidal rating IPOHE ([3]; rate 0.2500 kg/ha)
